Measured values from ChEMBL document CHEMBL1250451, “Mechanistic insights into a Ca2+-dependent family of alpha-mannosidases in a human gut symbiont” (Nat Chem Biol, 2010).

Assays:
Format in all cases: protein assay
[1] = target: T1, Alpha-1,2-mannosidase (BT_3990) (Bacteroides thetaiotaomicron) (UniProt Q8A0N1); experiment: Activity of Bacteroides thetaiotaomicron GH92 alpha-mannosidase 3990 assessed as recovery of enzyme activity at 1 mM relative to enzyme activity in presence of calcium
T1 sequence (whole entry): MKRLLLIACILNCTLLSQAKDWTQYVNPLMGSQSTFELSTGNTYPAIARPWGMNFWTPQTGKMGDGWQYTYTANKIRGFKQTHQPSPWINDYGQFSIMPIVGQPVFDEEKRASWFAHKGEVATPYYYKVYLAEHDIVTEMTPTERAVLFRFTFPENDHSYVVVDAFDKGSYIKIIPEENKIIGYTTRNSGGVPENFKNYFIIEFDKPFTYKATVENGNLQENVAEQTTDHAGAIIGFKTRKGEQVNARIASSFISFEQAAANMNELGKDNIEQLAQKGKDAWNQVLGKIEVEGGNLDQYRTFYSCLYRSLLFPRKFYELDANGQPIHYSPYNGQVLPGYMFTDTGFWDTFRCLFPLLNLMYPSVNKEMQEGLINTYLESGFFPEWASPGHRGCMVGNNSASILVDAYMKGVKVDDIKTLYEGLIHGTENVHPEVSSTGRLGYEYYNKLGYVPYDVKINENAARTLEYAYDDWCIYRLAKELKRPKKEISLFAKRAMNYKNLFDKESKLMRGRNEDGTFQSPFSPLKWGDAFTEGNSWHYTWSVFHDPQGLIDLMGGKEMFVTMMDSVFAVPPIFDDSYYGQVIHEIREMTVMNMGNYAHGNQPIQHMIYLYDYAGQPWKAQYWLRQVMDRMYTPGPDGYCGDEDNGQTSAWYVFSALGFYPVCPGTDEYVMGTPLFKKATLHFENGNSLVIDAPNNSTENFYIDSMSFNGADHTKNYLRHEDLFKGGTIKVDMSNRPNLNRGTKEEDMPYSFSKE

[2] = target: T1, Alpha-1,2-mannosidase (BT_3990) (Bacteroides thetaiotaomicron); experiment: Activity of Bacteroides thetaiotaomicron GH92 alpha-mannosidase 3990 assessed as recovery of enzyme activity at 1 mM in presence of 7 mM Zn(2+) ions and in presence of 5 mM EGTA in 100 mM pH 7 MOPS buffer relative to enzyme activity in presence of calcium
[3] = target: T1, Alpha-1,2-mannosidase (BT_3990) (Bacteroides thetaiotaomicron); experiment: Activity of Bacteroides thetaiotaomicron GH92 alpha-mannosidase 3990 assessed as recovery of enzyme activity at 1 mM in absence of metal and in presence of 5 mM EGTA in 100 mM pH 7 MOPS buffer relative to enzyme activity in presence of calcium
[4] = target: T2, Alpha-1,2-mannosidase (BT_2199) (Bacteroides thetaiotaomicron) (UniProt Q8A5N9); experiment: Activity of Bacteroides thetaiotaomicron GH92 alpha-mannosidase 2199 assessed as recovery of enzyme activity at 1 mM in presence of 7 mM Zn(2+) ions and in presence of 5 mM EGTA in 100 mM pH 7 MOPS buffer relative to enzyme activity in presence of calcium
T2 sequence (whole entry): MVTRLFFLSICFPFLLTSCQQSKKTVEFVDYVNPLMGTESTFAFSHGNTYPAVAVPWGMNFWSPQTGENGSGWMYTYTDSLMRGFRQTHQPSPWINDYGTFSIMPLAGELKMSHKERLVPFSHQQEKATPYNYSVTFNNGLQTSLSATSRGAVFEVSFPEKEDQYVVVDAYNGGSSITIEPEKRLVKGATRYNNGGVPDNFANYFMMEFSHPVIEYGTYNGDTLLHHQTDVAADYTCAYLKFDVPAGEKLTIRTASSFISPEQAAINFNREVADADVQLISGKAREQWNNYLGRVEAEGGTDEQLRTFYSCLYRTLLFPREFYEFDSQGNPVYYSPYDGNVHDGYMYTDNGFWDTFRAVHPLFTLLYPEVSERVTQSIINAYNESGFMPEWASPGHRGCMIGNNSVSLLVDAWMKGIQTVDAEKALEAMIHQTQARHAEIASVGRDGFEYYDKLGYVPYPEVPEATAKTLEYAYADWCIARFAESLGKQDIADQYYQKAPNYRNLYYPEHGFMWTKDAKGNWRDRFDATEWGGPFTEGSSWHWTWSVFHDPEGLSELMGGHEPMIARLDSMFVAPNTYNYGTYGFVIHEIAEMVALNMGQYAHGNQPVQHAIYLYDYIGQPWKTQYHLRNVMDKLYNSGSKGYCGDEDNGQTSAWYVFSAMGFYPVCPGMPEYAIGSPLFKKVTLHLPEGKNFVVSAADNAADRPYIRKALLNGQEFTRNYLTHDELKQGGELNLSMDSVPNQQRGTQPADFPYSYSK

[5] = target: T1, Alpha-1,2-mannosidase (BT_3990) (Bacteroides thetaiotaomicron); experiment: Activity of Bacteroides thetaiotaomicron GH92 alpha-mannosidase 3990 assessed as recovery of enzyme activity at 1 mM in presence of 7 mM Co(2+) ions and in presence of 5 mM EGTA in 100 mM pH 7 MOPS buffer relative to enzyme activity in presence of calcium
[6] = target: T2, Alpha-1,2-mannosidase (BT_2199) (Bacteroides thetaiotaomicron); experiment: Activity of Bacteroides thetaiotaomicron GH92 alpha-mannosidase 2199 assessed as recovery of enzyme activity at 1 mM in presence of 7 mM Ca(2+) ions and in presence of 5 mM EGTA in 100 mM pH 7 MOPS buffer relative to enzyme activity in presence of calcium
[7] = target: T2, Alpha-1,2-mannosidase (BT_2199) (Bacteroides thetaiotaomicron); experiment: Activity of Bacteroides thetaiotaomicron GH92 alpha-mannosidase 2199 assessed as recovery of enzyme activity at 1 mM in presence of 7 mM Mg(2+) ions and in presence of 5 mM EDTA in 100 mM pH 7 MOPS buffer relative to enzyme activity in presence of calcium
[8] = target: T2, Alpha-1,2-mannosidase (BT_2199) (Bacteroides thetaiotaomicron); experiment: Activity of Bacteroides thetaiotaomicron GH92 alpha-mannosidase 2199 assessed as recovery of enzyme activity at 1 mM in presence of 7 mM V(3+) ions and in presence of 5 mM EDTA in 100 mM pH 7 MOPS buffer relative to enzyme activity in presence of calcium
[9] = target: T2, Alpha-1,2-mannosidase (BT_2199) (Bacteroides thetaiotaomicron); experiment: Activity of Bacteroides thetaiotaomicron GH92 alpha-mannosidase 2199 assessed as recovery of enzyme activity at 1 mM in presence of 7 mM Ba(2+) ions and in presence of 5 mM EDTA in 100 mM pH 7 MOPS buffer relative to enzyme activity in presence of calcium
[10] = target: T2, Alpha-1,2-mannosidase (BT_2199) (Bacteroides thetaiotaomicron); experiment: Activity of Bacteroides thetaiotaomicron GH92 alpha-mannosidase 2199 assessed as recovery of enzyme activity at 1 mM in presence of 7 mM Sc(3+) ions and in presence of 5 mM EDTA in 100 mM pH 7 MOPS buffer relative to enzyme activity in presence of calcium
[11] = target: T1, Alpha-1,2-mannosidase (BT_3990) (Bacteroides thetaiotaomicron); experiment: Activity of Bacteroides thetaiotaomicron GH92 alpha-mannosidase 3990 assessed as recovery of enzyme activity at 1 mM in absence of metal and in presence of 5 mM EDTA in 100 mM pH 7 MOPS buffer relative to enzyme activity in presence of calcium
[12] = target: T1, Alpha-1,2-mannosidase (BT_3990) (Bacteroides thetaiotaomicron); experiment: Activity of Bacteroides thetaiotaomicron GH92 alpha-mannosidase 3990 assessed as recovery of enzyme activity at 1 mM in presence of 7 mM Be(2+) ions and in presence of 5 mM EDTA in 100 mM pH 7 MOPS buffer relative to enzyme activity in presence of calcium

Row | Activity [1] | Activity [2] | Activity [3] | Activity [4] | Activity [5] | Activity [6] | Activity [7] | Activity [8] | Activity [9] | Activity [10] | Activity [11] | Activity [12] | Structure (SMILES)
1 | 65% |  |  |  |  |  |  |  |  |  |  |  | OC[C@H]1O[C@H](OC[C@H]2O[C@H](O)[C@@H](O)[C@@H](O)[C@@H]2O)[C@@H](O)[C@@H](O)[C@@H]1O
2 |  | 0% | 0% | 0% | 11% | 100% | 0% | 0% | 0% | 0% | 0% | 0% | O=[N+]([O-])c1ccc(O[C@H]2O[C@H](CO)[C@@H](O)[C@H](O)[C@@H]2O)cc1
